Assay results as given in patent publication US20070179162A1, “Triazolopyrimdines” (priority 2003, published 2007).

Key:
[1] = logP determination through HPLC (gradient method, acetonitrile/0.1% aqueous phosphoric acid); type: physicochemical
Alternaria solani = assay: Alternaria test (tomato)/protective; type: in vivo; conditions: tomato plants, protective, applied quantity 750 g/ha, analysis 7 days after inoculation; 100% = no infection
Procedure: Alternaria Test (Tomato)/Protective Solvent: 49 parts by weight N,N-dimethyl formamide Emulsifier: 1 part by weight alkyl aryl polyglycolether To produce an effective active ingredient preparation, 1 part by weight active ingredient is mixed with the specified quantities of solvent and emulsifier and the concentrate is diluted using water to the desired concentration. To test for protective activity, young tomato plants are sprayed with the active ingredient preparation in the specified applied quantity. 1 day after the treatment, the plants are inoculated with a spore suspension of Alternaria solani and then stand 24 hours at 100% relative humidity and 20° C. The plants are then stand at 96% relative humidity and a temperature of 20° C. The analysis is performed 7 days after the inoculation. In this case, 0% means an activity which corresponds to that of the control, while an activity of 100% means that no infection is observed.

chromatographic logP [1]: 3.27
SMILES: CC1CCC(c2c(-c3ncncc3Cl)c(Cl)nc3ncnn23)CC1 (centres unmarked) [Example 1, 5-chloro-6-(5-chloro-4-pyrimidinyl)-7-(4-methylcyclohexyl)[1,2,4]triazolo[1,5-a]pyrimidine]
activity (Alternaria solani): 100%
